The source of these data is the supplement of paper PMC10307832.

Holding throughout (assay): relative viability (nuclei count vs DMSO), 5 days (fraction); higher = more cells survive
Compound in experiment [1]: C=CCNC1=C2C[C@@H](C)C[C@H](OC)[C@H](O)[C@@H](C)/C=C(\C)[C@H](OC(N)=O)[C@@H](OC)/C=C\C=C(/C)C(=O)NC(=CC1=O)C2=O [17-AAG] + CC(=O)Nc1cccc(-n2c(=O)n(C3CC3)c(=O)c3c(Nc4ccc(I)cc4F)n(C)c(=O)c(C)c32)c1 [Trametinib] (partner 0.02 µM)
The method, boiled down: (§1)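 Lung cancer cell lines in 1536-well plates were dosed by pin tool the day after seeding, either with one drug alone or with a fixed anchor-drug dose plus five library-drug doses (not always all listed) in √10 steps. After 5 days, cells were fixed and their nuclei stained in one step (final 0.05% Triton X-100, 1% formaldehyde, 1 ug/ml Hoechst), then counted on 4× images. Relative viability is the nuclei count in treated wells divided by that in vehicle wells. Values are medians of duplicate plates.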

Compound in experiment [2]: C=CCNC1=C2C[C@@H](C)C[C@H](OC)[C@H](O)[C@@H](C)/C=C(\C)[C@H](OC(N)=O)[C@@H](OC)/C=C\C=C(/C)C(=O)NC(=CC1=O)C2=O [17-AAG] + N=C(N)NC(=N)NCCc1ccccc1 [Phenformin] (partner 250 µM)
The method, boiled down:
as §1

Compound in experiment [3]: C=CCNC1=C2C[C@@H](C)C[C@H](OC)[C@H](O)[C@@H](C)/C=C(\C)[C@H](OC(N)=O)[C@@H](OC)/C=C\C=C(/C)C(=O)NC(=CC1=O)C2=O [17-AAG] + Nc1nc2[nH]cc(CCc3ccc(C(=O)N[C@@H](CCC(=O)O)C(=O)O)cc3)c2c(=O)[nH]1 [Pemetrexed] (partner 0.2 µM)
The method, boiled down: as §1

Compound in experiment [4]: C=CCNC1=C2C[C@@H](C)C[C@H](OC)[C@H](O)[C@@H](C)/C=C(\C)[C@H](OC(N)=O)[C@@H](OC)/C=C\C=C(/C)C(=O)NC(=CC1=O)C2=O [17-AAG] + CC1(C)CCC(c2ccc(Cl)cc2)=C(CN2CCN(c3ccc(C(=O)NS(=O)(=O)c4ccc(N[C@H](CCN5CCOCC5)CSc5ccccc5)c(S(=O)(=O)C(F)(F)F)c4)cc3)CC2)C1 [Navitoclax] (partner 0.5 µM)
Put shortly:
as §1

Consider NCI-H460, for which the relative viability in experiment [1] (first compound 0.00128 µM) is 0.202; in experiment [1] (first compound 0.004048 µM), 0.0484; in experiment [1] (first compound 0.0128 µM), 0.0114; in experiment [1] (first compound 0.04048 µM), 0.0258; in experiment [1] (first compound 0.128 µM), 0.0229; in experiment [2] (first compound 0.00128 µM) it was 0.468. In addition, the relative viability was determined as 0.332 in experiment [2] (first compound 0.004048 µM); 0.0221 in experiment [2] (first compound 0.0128 µM); 0.021 in experiment [2] (first compound 0.04048 µM); 0.0236 in experiment [2] (first compound 0.128 µM); 0.0582 in experiment [3] (first compound 0.00128 µM); 0.0712 in experiment [3] (first compound 0.004048 µM). The relative viability came to 0.0849 in experiment [3] (first compound 0.0128 µM); 0.0247 in experiment [3] (first compound 0.04048 µM); 0.0362 in experiment [3] (first compound 0.128 µM); 0.986 in experiment [4] (first compound 0.00128 µM); 1.08 in experiment [4] (first compound 0.004048 µM); 0.0303 in experiment [4] (first compound 0.0128 µM). The relative viability was 0.0146 in experiment [4] (first compound 0.04048 µM) and 0.0215 in experiment [4] (first compound 0.128 µM).
On to NCI-H1793, for which the relative viability was 0.36 in experiment [1] (first compound 0.00128 µM); 0.318 in experiment [1] (first compound 0.004048 µM); 0.273 in experiment [1] (first compound 0.0128 µM); 0.18 in experiment [1] (first compound 0.04048 µM); 0.142 in experiment [1] (first compound 0.128 µM); 0.349 in experiment [2] (first compound 0.00128 µM). In addition, the relative viability in experiment [2] (first compound 0.004048 µM) was determined as 0.391; in experiment [2] (first compound 0.0128 µM), 0.229; in experiment [2] (first compound 0.04048 µM) it was 0.146; in experiment [2] (first compound 0.128 µM) it was 0.0817; in experiment [3] (first compound 0.00128 µM), 0.837; in experiment [3] (first compound 0.004048 µM), 0.513. For the same cell line, the relative viability in experiment [3] (first compound 0.0128 µM) stood at 0.213; in experiment [3] (first compound 0.04048 µM) it was 0.16; in experiment [3] (first compound 0.128 µM) it was 0.124; in experiment [4] (first compound 0.00128 µM) it was 0.346; in experiment [4] (first compound 0.004048 µM), 0.323; in experiment [4] (first compound 0.0128 µM), 0.228. The values for the relative viability in experiment [4] (first compound 0.04048 µM) and in experiment [4] (first compound 0.128 µM) were 0.192 and 0.151, respectively.
Consider NCI-H23, for which the relative viability was 0.336 in experiment [1] (first compound 0.00128 µM); 0.344 in experiment [1] (first compound 0.004048 µM); 0.246 in experiment [1] (first compound 0.0128 µM); 0.148 in experiment [1] (first compound 0.04048 µM); 0.116 in experiment [1] (first compound 0.128 µM); 0.665 in experiment [2] (first compound 0.00128 µM). For the same cell line, the relative viability in experiment [2] (first compound 0.004048 µM) amounted to 0.769; in experiment [2] (first compound 0.0128 µM), 0.575; in experiment [2] (first compound 0.04048 µM), 0.319; in experiment [2] (first compound 0.128 µM), 0.155; in experiment [3] (first compound 0.00128 µM) it was 0.564; in experiment [3] (first compound 0.004048 µM) it was 0.735. In addition, the relative viability came to 0.442 in experiment [3] (first compound 0.0128 µM); 0.202 in experiment [3] (first compound 0.04048 µM); 0.147 in experiment [3] (first compound 0.128 µM); 0.922 in experiment [4] (first compound 0.00128 µM); 0.836 in experiment [4] (first compound 0.004048 µM); 0.688 in experiment [4] (first compound 0.0128 µM). The relative viability was found to be 0.167 in experiment [4] (first compound 0.04048 µM) and 0.125 in experiment [4] (first compound 0.128 µM).
On to HARA, for which the relative viability amounted to 0.893 in experiment [1] (first compound 0.00128 µM); 0.598 in experiment [1] (first compound 0.004048 µM); 0.81 in experiment [1] (first compound 0.0128 µM); 0.66 in experiment [1] (first compound 0.04048 µM); 0.149 in experiment [1] (first compound 0.128 µM); 0.443 in experiment [2] (first compound 0.00128 µM). The relative viability in experiment [2] (first compound 0.004048 µM) came to 0.456; in experiment [2] (first compound 0.0128 µM), 0.367; in experiment [2] (first compound 0.04048 µM), 0.418; in experiment [2] (first compound 0.128 µM) it was 0.113; in experiment [3] (first compound 0.00128 µM), 0.256; in experiment [3] (first compound 0.004048 µM), 0.257. Also, the relative viability was 0.29 in experiment [3] (first compound 0.0128 µM); 0.198 in experiment [3] (first compound 0.04048 µM); 0.147 in experiment [3] (first compound 0.128 µM); 1.16 in experiment [4] (first compound 0.00128 µM); 1.21 in experiment [4] (first compound 0.004048 µM); 1.15 in experiment [4] (first compound 0.0128 µM). Moreover, the relative viability in experiment [4] (first compound 0.04048 µM) came out at 1.12; in experiment [4] (first compound 0.128 µM), 1.14.
With NCI-H1792, the relative viability in experiment [1] (first compound 0.00128 µM) was found to be 0.483; in experiment [1] (first compound 0.004048 µM), 0.337; in experiment [1] (first compound 0.0128 µM), 0.216; in experiment [1] (first compound 0.04048 µM), 0.0858; in experiment [1] (first compound 0.128 µM) it was 0.056; in experiment [2] (first compound 0.00128 µM) it was 0.338. In addition, the relative viability is 0.216 in experiment [2] (first compound 0.004048 µM); 0.066 in experiment [2] (first compound 0.0128 µM); 0.0797 in experiment [2] (first compound 0.04048 µM); 0.0405 in experiment [2] (first compound 0.128 µM); 0.782 in experiment [3] (first compound 0.00128 µM); 0.378 in experiment [3] (first compound 0.004048 µM). For the same cell line, the relative viability in experiment [3] (first compound 0.0128 µM) is 0.113; in experiment [3] (first compound 0.04048 µM), 0.0425; in experiment [3] (first compound 0.128 µM), 0.0604; in experiment [4] (first compound 0.00128 µM), 0.592; in experiment [4] (first compound 0.004048 µM), 0.675; in experiment [4] (first compound 0.0128 µM) it was 0.523. Besides, the relative viability in experiment [4] (first compound 0.04048 µM) amounted to 0.477; in experiment [4] (first compound 0.128 µM), 0.115.
On to NCI-H1703, for which the relative viability in experiment [4] (first compound 0.00128 µM) amounted to 0.961; in experiment [4] (first compound 0.004048 µM) it was 0.22; in experiment [4] (first compound 0.0128 µM), 0.16; in experiment [4] (first compound 0.04048 µM), 0.162; in experiment [4] (first compound 0.128 µM) it was 0.125.
Take NCI-H2342: the relative viability worked out at 0.8 in experiment [1] (first compound 0.00128 µM); 0.799 in experiment [1] (first compound 0.004048 µM); 0.79 in experiment [1] (first compound 0.0128 µM); 0.631 in experiment [1] (first compound 0.04048 µM); 0.7 in experiment [1] (first compound 0.128 µM); 0.562 in experiment [2] (first compound 0.00128 µM). Besides, the relative viability was 0.792 in experiment [2] (first compound 0.004048 µM); 0.554 in experiment [2] (first compound 0.0128 µM); 0.398 in experiment [2] (first compound 0.04048 µM); 0.379 in experiment [2] (first compound 0.128 µM); 0.803 in experiment [3] (first compound 0.00128 µM); 0.854 in experiment [3] (first compound 0.004048 µM). Moreover, the figures for the relative viability in experiment [3] (first compound 0.0128 µM), in experiment [3] (first compound 0.04048 µM) and in experiment [3] (first compound 0.128 µM) were 0.782, 0.589 and 0.39, respectively.
Turning to CAL-12T, the relative viability is 0.394 in experiment [1] (first compound 0.00128 µM); 0.352 in experiment [1] (first compound 0.004048 µM); 0.319 in experiment [1] (first compound 0.0128 µM); 0.308 in experiment [1] (first compound 0.04048 µM); 0.146 in experiment [1] (first compound 0.128 µM); 0.56 in experiment [2] (first compound 0.00128 µM). In addition, the relative viability came out at 0.498 in experiment [2] (first compound 0.004048 µM); 0.563 in experiment [2] (first compound 0.0128 µM); 0.447 in experiment [2] (first compound 0.04048 µM); 0.15 in experiment [2] (first compound 0.128 µM); 1.17 in experiment [3] (first compound 0.00128 µM); 0.951 in experiment [3] (first compound 0.004048 µM). In addition, the relative viability in experiment [3] (first compound 0.0128 µM) was 1.15; in experiment [3] (first compound 0.04048 µM) it was 1.04; in experiment [3] (first compound 0.128 µM), 0.207; in experiment [4] (first compound 0.00128 µM) it was 1.25; in experiment [4] (first compound 0.004048 µM), 1.17; in experiment [4] (first compound 0.0128 µM), 1.21. The relative viability came to 0.799 in experiment [4] (first compound 0.04048 µM) and 0.296 in experiment [4] (first compound 0.128 µM).
